Format in all cases: functional, cell-based
Assay [1] can be described thus: Cytotoxicity against human KBVIN cells by SRB assay. On the technique in general: In SRB staining, fixed cells bind dye roughly in proportion to their protein.
Assay [2] deals with A549. Put plainly: Cytotoxicity against human A549 cells by SRB assay.
Assay [3] concerns KB. Put plainly: Cytotoxicity against human KB cells by SRB assay.
Assay [4] has as its system DU-145. Put plainly: Cytotoxicity against human DU145 cells by SRB assay.
[5] abbreviates: Homo sapiens, KBVIN, read-out: IC50.
Where [6] appears, read: Homo sapiens, KB, read-out: IC50.
Setting [7] is: Homo sapiens, DU-145, read-out: IC50.

Converted amounts (≈) assume the structure as drawn.

By IC50 is commonly meant the concentration that inhibits the measured activity by half.

`C=C(C)[C@H]1Cc2c(ccc3c2O[C@@H]2COc4cc(OC)c(OC)cc4[C@@H]2[C@@H]3OC(=O)C2=CC(C)(C)N([O])C2(C)C)O1`: the IC50 in assay [1] (kbvin) is 0.075 µg/mL (≈ 0.133 µM); in assay [2] (a549), 0.408 µg/mL (≈ 0.725 µM); in assay [3] (kb), 0.273 µg/mL (≈ 0.485 µM); in assay [4] (du-145), 0.223 µg/mL (≈ 0.396 µM).

With `C=C(C)[C@H]1Cc2c(ccc3c2O[C@@H]2COc4cc(OC)c(OC)cc4[C@@H]2/C3=N\OC(=O)C2=CC(C)(C)N([O])C(C)(C)C2)O1`, the IC50 in assay [1] (kbvin) was 0.162 µg/mL (≈ 0.275 µM); in assay [2] (a549) it was 0.542 µg/mL (≈ 0.919 µM); in assay [3] (kb), 0.575 µg/mL (≈ 0.975 µM); in assay [4] (du-145) it was 0.358 µg/mL (≈ 0.607 µM).

Take `C=C(C)[C@H]1Cc2c(ccc3c2O[C@@H]2COc4cc(OC)c(OC)cc4[C@@H]2[C@@H]3OC(=O)[C@H](Cc2ccccc2)NC(=O)OC2CC(C)(C)N([O])C(C)(C)C2)O1`: the IC50 in assay [1] (kbvin) worked out at 0.383 µg/mL (≈ 0.516 µM); in assay [2] (a549) it was 0.713 µg/mL (≈ 0.961 µM); in assay [3] (kb), 0.509 µg/mL (≈ 0.686 µM); in assay [4] (du-145) it was 0.462 µg/mL (≈ 0.623 µM).

For `C=C(C)[C@H]1Cc2c(ccc3c2O[C@@H]2COc4cc(OC)c(OC)cc4[C@@H]2[C@@H]3OC(=O)C2=CC(C)(C)N([O])C(C)(C)C2)O1`, the IC50 was found to be 0.299 µg/mL (≈ 0.518 µM) in assay [1] (kbvin), 0.578 µg/mL (≈ 1 µM) in assay [2] (a549), 0.427 µg/mL (≈ 0.74 µM) in assay [3] (kb) and 0.322 µg/mL (≈ 0.558 µM) in assay [4] (du-145).

Consider `C=C(C)[C@H]1Cc2c(ccc3c2O[C@@H]2COc4cc(OC)c(OC)cc4[C@@H]2[C@@H]3OC(=O)[C@H](CC(C)C)NC(=O)OC2CC(C)(C)N([O])C(C)(C)C2)O1`, for which the IC50 in assay [1] (kbvin) stood at 0.355 µg/mL (≈ 0.502 µM); in assay [2] (a549), 0.521 µg/mL (≈ 0.736 µM); in assay [3] (kb), 0.483 µg/mL (≈ 0.682 µM); in assay [4] (du-145), 0.443 µg/mL (≈ 0.626 µM).

With `C=C(C)[C@H]1Cc2c(ccc3c2O[C@@H]2COc4cc(OC)c(OC)cc4[C@@H]2/C3=N\OC(=O)C2=CC(C)(C)N([O])C2(C)C)O1`, the IC50 was 0.62 µg/mL (≈ 1.08 µM) in assay [1] (kbvin), 0.738 µg/mL (≈ 1.28 µM) in assay [2] (a549), 0.633 µg/mL (≈ 1.1 µM) in assay [3] (kb) and 0.426 µg/mL (≈ 0.74 µM) in assay [4] (du-145).

For the compound `C=C(C)[C@H]1Cc2c(ccc3c2O[C@@H]2COc4cc(OC)c(OC)cc4[C@@H]2[C@@H]3OC(=O)C2CC(C)(C)N([O])C(C)(C)C2)O1`, the IC50 in assay [1] (kbvin) was found to be 0.092 µg/mL (≈ 0.159 µM); in assay [2] (a549), 0.523 µg/mL (≈ 0.904 µM); in assay [3] (kb), 0.408 µg/mL (≈ 0.705 µM); in assay [4] (du-145), 0.266 µg/mL (≈ 0.46 µM).

`C=C(C)[C@H]1Cc2c(ccc3c2O[C@@H]2COc4cc(OC)c(OC)cc4[C@@H]2/C3=N\OC(=O)C2CC(C)(C)N([O])C(C)(C)C2)O1`: the IC50 was found to be 0.358 µg/mL (≈ 0.605 µM) in assay [1] (kbvin), 0.651 µg/mL (≈ 1.1 µM) in assay [2] (a549), 0.523 µg/mL (≈ 0.884 µM) in assay [3] (kb) and 0.488 µg/mL (≈ 0.825 µM) in assay [4] (du-145).

Consider `C=C(C)[C@H]1Cc2c(ccc3c2O[C@@H]2COc4cc(OC)c(OC)cc4[C@@H]2[C@@H]3OC(=O)CNC(=O)OC2CC(C)(C)N([O])C(C)(C)C2)O1`, for which the IC50 in assay [1] (kbvin) stood at 0.41 µg/mL (≈ 0.629 µM); in assay [2] (a549), 0.624 µg/mL (≈ 0.957 µM); in assay [3] (kb), 0.51 µg/mL (≈ 0.783 µM); in assay [4] (du-145), 0.45 µg/mL (≈ 0.69 µM).

On to `C=C(C)[C@H]1Cc2c(ccc3c2O[C@@H]2COc4cc(OC)c(OC)cc4[C@@H]2[C@@H]3OC(=O)C2CC(C)(C)N([O])C2(C)C)O1` (some centres not stated), for which the IC50 in assay [1] (kbvin) stood at 0.241 µg/mL (≈ 0.427 µM); in assay [2] (a549), 0.533 µg/mL (≈ 0.944 µM); in assay [3] (kb) it was 0.443 µg/mL (≈ 0.785 µM); in assay [4] (du-145) it was 0.277 µg/mL (≈ 0.491 µM).

As to `CC(=O)O[C@H]1C(=O)[C@@]2(C)[C@H]([C@H](OC(=O)c3ccccc3)[C@]3(O)C[C@H](OC(=O)[C@H](O)[C@@H](NC(=O)c4ccccc4)c4ccccc4)C(C)=C1C3(C)C)[C@]1(OC(C)=O)CO[C@@H]1C[C@@H]2O` [PACLITAXEL], the IC50 in assay [1] (setting [5]) stood at 1.15 µg/mL (≈ 1.34 µM); in assay [3] (setting [6]), 0.0048 µg/mL (≈ 0.00562 µM); in assay [4] (setting [7]), 0.0037 µg/mL (≈ 0.00433 µM).

Turning to `C=C(C)[C@H]1Cc2c(ccc3c2O[C@@H]2COc4cc(OC)c(OC)cc4[C@@H]2[C@@H]3OC(=O)[C@@H](NC(=O)OC2CC(C)(C)N([O])C(C)(C)C2)C(C)CC)O1` (some centres not stated), the IC50 in assay [1] (kbvin) was found to be 0.399 µg/mL (≈ 0.564 µM); in assay [2] (a549) it was 0.649 µg/mL (≈ 0.917 µM); in assay [3] (kb), 0.516 µg/mL (≈ 0.729 µM); in assay [4] (du-145), 0.396 µg/mL (≈ 0.559 µM).

As for `C=C(C)[C@H]1Cc2c(ccc3c2O[C@@H]2COc4cc(OC)c(OC)cc4[C@@H]2C3=O)O1` [ROTENONE], the IC50 in assay [1] (setting [5]) turned out to be 0.595 µg/mL (≈ 1.51 µM); in assay [2] (Homo sapiens, A549, read-out: IC50), 0.901 µg/mL (≈ 2.28 µM); in assay [3] (setting [6]), 0.513 µg/mL (≈ 1.3 µM); in assay [4] (setting [7]), 0.465 µg/mL (≈ 1.18 µM).

As for `C=C(C)[C@H]1Cc2c(ccc3c2O[C@@H]2COc4cc(OC)c(OC)cc4[C@@H]2[C@@H]3OC(=O)[C@H](C)NC(=O)OC2CC(C)(C)N([O])C(C)(C)C2)O1`, the IC50 is 0.357 µg/mL (≈ 0.536 µM) in assay [1] (kbvin), 0.65 µg/mL (≈ 0.976 µM) in assay [2] (a549), 0.442 µg/mL (≈ 0.664 µM) in assay [3] (kb) and 0.417 µg/mL (≈ 0.626 µM) in assay [4] (du-145).

Take `C=C(C)[C@H]1Cc2c(ccc3c2O[C@@H]2COc4cc(OC)c(OC)cc4[C@@H]2[C@@H]3OC(=O)[C@H](Cc2c[nH]c3ccccc23)NC(=O)OC2CC(C)(C)N([O])C(C)(C)C2)O1`: the IC50 in assay [1] (kbvin) is 0.414 µg/mL (≈ 0.53 µM); in assay [2] (a549), 0.631 µg/mL (≈ 0.808 µM); in assay [3] (kb), 0.565 µg/mL (≈ 0.724 µM); in assay [4] (du-145), 0.477 µg/mL (≈ 0.611 µM).

For the compound `C=C(C)[C@H]1Cc2c(ccc3c2O[C@@H]2COc4cc(OC)c(OC)cc4[C@@H]2/C3=N\OC(=O)C2CC(C)(C)N([O])C2(C)C)O1` (some centres not stated), the IC50 in assay [1] (kbvin) was determined as 0.298 µg/mL (≈ 0.516 µM); in assay [2] (a549) it was 0.471 µg/mL (≈ 0.815 µM); in assay [3] (kb) it was 0.56 µg/mL (≈ 0.969 µM); in assay [4] (du-145) it was 0.322 µg/mL (≈ 0.557 µM).

On to `C=C(C)[C@H]1Cc2c(ccc3c2O[C@@H]2COc4cc(OC)c(OC)cc4[C@@H]2[C@@H]3OC(=O)[C@@H](NC(=O)OC2CC(C)(C)N([O])C(C)(C)C2)C(C)C)O1`, for which the IC50 in assay [1] (kbvin) is 0.381 µg/mL (≈ 0.549 µM); in assay [2] (a549) it was 0.615 µg/mL (≈ 0.886 µM); in assay [3] (kb), 0.497 µg/mL (≈ 0.716 µM); in assay [4] (du-145), 0.451 µg/mL (≈ 0.65 µM).

The record behind these values is ChEMBL document CHEMBL1938345, “Design, synthesis and cytotoxic activity of novel spin-labeled rotenone derivatives” (Bioorg Med Chem Lett, 2012).
